Entries after “also recorded” stand apart in the source; their conditions may differ. Where two headings read alike, the source gives them in different places.
Key:
[1] = tested on: herpes simplex virus type 1 (HSV-1); conditions: cited from earlier work
arena viruses = conditions: cited from earlier work
measles virus (MV) = conditions: cited from earlier work
[2] = tested on: T-lymphoblastic leukaemia cell line CEM; assay: Calcein AM cytotoxicity assay, CEM; type: cell-based; conditions: read-out: IC50 assessed by Calcein AM assay of surviving cells
[3] = tested on: multiple myeloma cell line RPMI 8226; assay: Calcein AM cytotoxicity assay, RPMI 8226; type: cell-based; conditions: exposure 72 h (b71 says 96 h), mean ± SD
[4] = tested on: malignant human melanoma cell line G361; assay: Calcein AM cytotoxicity assay, G 361; type: cell-based
[5] = tested on: normal human fibroblasts (BJ); assay: Calcein AM cytotoxicity assay, BJ; type: cell-based; conditions: read-out: IC50 assessed by Calcein AM assay of surviving cells
[6] = tested on: normal and cancer cell lines of different histopathological origin; assay: Calcein AM cytotoxicity assay, summary statements over the cell line panel; type: cell-based; conditions: for cytotoxic / growth inhibitory activity in words: tested in amounts up to 50 μmol/L per assay
Protocol: Stock solutions ([…]) were prepared by dissolving relevant quantity of substance in DMSO cultivation media (DMEM, RPMI 1640, F-12 medium), fetal bovine serum (FBS), L-glutamine, penicillin, and streptomycin were purchased from Sigma (MO, USA). 3-(4,5-Dimethylthiazol-2-yl)-2,5-diphenyltetrazolium bromide (MTT) was from Serva Electrophoresis (Heidelberg, Germany). Monoclonal mouse anti-bromodeoxyuridine (BrdU) intibody was obtained from DakoCytomation (Glostrup, Denmark). Calcein AM was obtained from PAA Laboratories GmbH (Pasching, Austria). The screening cell lines (T-lymphoblastic leukaemia cell line CEM; breast carcinoma cell line MCF-7 (estrogen-sensitive), breast adenocarcinoma cell line MDA-MB 468 (cell lines LNCaP (androgen-sensitive), prostate carcinoma cell line DU-145 ([…]), lung carcinoma cell line A-549, chronic myelogenous leukemia cell line K562, multiple myeloma cell line RPMI 8226, cervical carcinoma cell line HeLa, malignant human melanoma cell line G361, osteosarcoma cell line HOS, and normal human fibroblasts (BJ) were obtained from the American Type Culture Collection (Manassas, Va., USA). MCF-7 cells were cultured in F-12 medium (Sigma, MO, USA). LNCaP cells were cultured in RPMI 1640 medium (GIBCO, USA). All other cells were cultured in DMEM medium (Sigma, MO, USA). All used media were supplemented with 10% heat-inactivated fetal bovine serum, 2 mmol/L L-glutamine, 1% penicillin/streptomycin. The cell lines were maintained under standard cell culture conditions at 37° C. and 5% CO2 in a humid environment. Cells were subcultured twice or three times a week using the standard trypsinization procedure (Sigma, USA).
The cell suspension of approximate density of 1.25×10^5 cells/mL was redistributed into 96-well microtitre plates and after 12 h of stabilization the tested Brassinosteroids (BRs) were added in different concentrations. BRs were dissolved in DMSO. Control cultures were treated with DMSO alone. The final concentration of DMSO in the reaction mixture never exceeded 1%. Tested compounds in given concentrations were added at time zero in 20 μL aliquots to the microtiter plate wells. Usually, each test compound was evaluated at six 4-fold dilutions. In routine testing, the highest well concentration was 50 μmol, but it can be the matter of change dependent on the agent. Cultivation proceeds 96 h at 37° C., the cells were incubated with Calcein AM solution (Molecular Probes) for 1 h. Fluorescence (OD) of viable cells was quantified with Fluoroscan Ascent (Microsystems). The cell survival (IC50) was calculated using the following equation: IC50=(ODdrug exposed well/mean ODcontrol wells)×100%. Each compound was tested in triplicates and the test was repeated at least 3 times. The IC50 value, corresponding to drug concentration lethal to 50% of the tumor cells, was calculated from the obtained dose response curves.
We investigated effects of brassinosteroid on viability of normal and cancer cell lines of different histopathological origin. To evaluate the cytotoxic properties of several BRs and some related steroids, we used T-lymphoblastic leukaemia cell line CEM, breast carcinoma cell line MCF-7, lung carcinoma cell line A-549, chronic myeloid leukaemia cell line K562, multiple myeloma cell line RPMI 8226, cervical carcinoma cell line HeLa, malignant melanoma cell line G361, osteosarcoma cell line HOS, and normal human fibroblasts BJ. The cells were exposed to six 4-fold dilutions of each drug for 72 h to determinate number of surviving cells.

[7] = CEM, six 4-fold dilutions, exposure 72 h (b71 says 96 h), mean ± SD
[8] = RPMI 8226, read-out: IC50 assessed by Calcein AM assay of surviving cells
[9] = G 361, exposure 72 h (b71 says 96 h), mean ± SD, read-out: IC50 assessed by Calcein AM assay of surviving cells
[10] = BJ normal fibroblasts, exposure 72 h (b71 says 96 h), mean ± SD
[11] = Homo sapiens, RPMI-8226, RPMI 8226, read-out: IC50 assessed by Calcein AM assay of surviving cells
[12] = Homo sapiens, G 361, exposure 72 h (b71 says 96 h), mean ± SD, read-out: IC50 assessed by Calcein AM assay of surviving cells
[13] = Homo sapiens, Fibroblast, BJ normal fibroblasts, exposure 72 h (b71 says 96 h), mean ± SD
[14] = Homo sapiens, RPMI-8226, read-out: IC50 assessed by Calcein AM assay of surviving cells, RPMI 8226
[15] = Homo sapiens, G-361, read-out: IC50 assessed by Calcein AM assay of surviving cells

Row | Compound | IC50 [2, 7] | IC50 [3, 8] | IC50 [4, 9] | IC50 [5, 10] | cytotoxic / growth inhibitory activity in words [6] | further results
1 | CC[C@@H](C(C)C)[C@@H](O)[C@H](O)[C@@H](C)[C@H]1CC[C@H]2[C@@H]3COC(=O)[C@H]4C[C@H](O)[C@H](O)C[C@]4(C)[C@H]3CC[C@]12C [Brassinosteroid 2, 28-Homobrassinolide] |  |  |  |  |  | in vitro antiviral activity [1]: in vitro antiviral activity; in vitro antiviral activity (arena viruses): in vitro antiviral activity; in vitro antiviral activity (measles virus (MV)): in vitro antiviral activity
2 | CC(C)[C@@H](C)/C=C/[C@@H](C)[C@H]1CC[C@H]2[C@@H]3CC=C4C[C@@H](O)CC[C@]4(C)[C@H]3CC[C@]12C [Brassicasterol] | > 50 µM | > 50 µM | > 50 µM | > 50 µM | Almost zero activity | 
3 | CC(C)CCC[C@@H](C)[C@H]1CC[C@H]2[C@@H]3CC=C4C[C@@H](O)CC[C@]4(C)[C@H]3CC[C@]12C [Cholesterol] | > 50 µM | 38 ± 2.9 µM |  |  |  | IC50 [3, 11]: > 30 µM; IC50 [4, 12]: > 50 µM; IC50 [5, 13]: > 50 µM
4 | CC(C)CCC[C@@H](C)[C@H]1CC[C@H]2[C@@H]3CC[C@H]4CCCC[C@]4(C)[C@H]3CC[C@]12C [5α-cholestane] | > 50 µM |  |  |  | Almost zero activity | IC50 [3, 11]: > 50 µM; IC50 [4, 12]: > 50 µM; IC50 [5, 13]: > 50 µM
5 | CC[C@@H](C(C)C)[C@@H](O)[C@H](O)[C@@H](C)[C@H]1CCC2C3COC(=O)C4C[C@H](O)[C@H](O)C[C@]4(C)C3CC[C@@]21C (some centres unmarked) [Brassinosteroid 2] | 48 ± 1.3 µM |  |  |  |  | IC50 [3, 11]: > 50 µM; IC50 [4, 12]: > 50 µM; IC50 [5, 13]: > 50 µM
6 | CC(C)[C@@H](C)[C@H](O)[C@@H](O)[C@@H](C)[C@H]1CC[C@H]2[C@@H]3COC(=O)[C@H]4C[C@H](O)[C@H](O)C[C@]4(C)[C@H]3CC[C@]12C [22S,23S-24-Epibrassinolide] | > 50 µM | > 50 µM | > 50 µM | > 50 µM |  | 
7 | CC(C)[C@@H](C)[C@H](O)[C@@H](O)[C@@H](C)[C@H]1CC[C@H]2[C@@H]3CC(=O)[C@H]4C[C@H](O)[C@H](O)C[C@]4(C)[C@H]3CC[C@]12C [22S,23S-24-Epicastasterone] | 49 ± 1.8 µM | > 50 µM | > 50 µM | > 50 µM |  | 
8 | CC[C@H](/C=C/[C@@H](C)[C@H]1CC[C@H]2[C@@H]3CC=C4C[C@@H](O)CC[C@]4(C)[C@H]3CC[C@]12C)C(C)C [Stigmasterol] |  |  |  |  | Almost zero activity | IC50 [2]: > 50 µM; IC50 [3, 14]: > 30 µM; IC50 ([3]; read-out: IC50 assessed by Calcein AM assay of surviving cells, RPMI 8226): 32 ± 0.6 µM; IC50 [4, 15]: > 50 µM; IC50 ([5]; Homo sapiens, Fibroblast): > 50 µM
9 | CC(C)[C@H](C)[C@@H](O)[C@H](O)[C@@H](C)[C@H]1CCC2C3COC(=O)C4C[C@H](O)[C@H](O)C[C@]4(C)C3CC[C@@]21C (some centres unmarked) [Brassinosteroid 1] |  |  |  |  |  | IC50 [2]: > 50 µM; IC50 [3, 14]: > 50 µM; IC50 [4, 15]: > 50 µM; IC50 ([5]; Homo sapiens, Fibroblast): > 50 µM
10 | CC(C)[C@H](C)[C@@H](O)[C@H](O)[C@@H](C)[C@H]1CCC2C3CC(=O)C4C[C@H](O)[C@@H](O)C[C@]4(C)C3CC[C@@]21C (some centres unmarked) [Brassinosteroid 16] | > 50 µM | > 50 µM | > 50 µM | > 50 µM |  | 
11 | CC[C@@H](C(C)C)[C@H](O)[C@@H](O)[C@@H](C)[C@H]1CC[C@H]2[C@@H]3CC(=O)[C@H]4C[C@H](O)[C@H](O)C[C@]4(C)[C@H]3CC[C@]12C [22S,23S-28-Homocastasterone] | 24 ± 1.5 µM | 25 µM | 45 ± 2.2 µM | > 50 µM |  | 
12 | CC[C@@H](C(C)C)[C@H](O)[C@@H](O)[C@@H](C)[C@H]1CC[C@H]2[C@@H]3COC(=O)[C@H]4C[C@H](O)[C@H](O)C[C@]4(C)[C@H]3CC[C@]12C [22S,23S-28-Homobrassinolide] | 35 ± 2.2 µM | 31 ± 7.3 µM | > 50 µM | > 50 µM |  | IC50 ([6]; range over RPMI 8226 and CEM values of Table 1): 31 to 35 µM
13 | CC(C)(O)CC[C@@H](O)[C@](C)(O)[C@H]1CC[C@@]2(O)C3=CC(=O)[C@@H]4C[C@@H](O)[C@@H](O)C[C@]4(C)[C@H]3CC[C@]12C [β-ecdyson] | > 50 µM | > 50 µM | > 50 µM | > 50 µM |  | cytotoxic / growth inhibitory activity in words ([6]; listed as β-ecdysone): Almost zero activity; also recorded: zero growth inhibitory activity
14 | CC(C)[C@H](C)[C@@H](O)[C@H](O)[C@@H](C)[C@H]1CC[C@H]2[C@@H]3CC(=O)[C@H]4C[C@H](O)[C@H](O)C[C@]4(C)[C@H]3CC[C@]12C [Brassinosteroid 8, Castasterone] |  |  |  |  | high cytotoxicity | 
15 | CC(C)[C@H](C)[C@@H](O)[C@H](O)[C@@H](C)[C@H]1CCC2C3CC(=O)C4C[C@H](O)[C@H](O)C[C@]4(C)C3CC[C@@]21C (some centres unmarked) [Brassinosteroid 8] | 16 ± 5.3 µM |  |  |  |  | IC50 [3, 11]: 33 ± 1.3 µM; IC50 [4, 12]: > 50 µM; IC50 [5, 13]: > 50 µM
16 | CC[C@H](CC[C@@H](C)[C@H]1CC[C@H]2[C@@H]3CC=C4C[C@@H](O)CC[C@]4(C)[C@H]3CC[C@]12C)C(C)C [Sitosterol] | > 50 µM | 32 ± 1.6 µM | > 50 µM | > 50 µM | Almost zero activity | 

From patent US20100204460A1, “NATURAL BRASSINOSTEROIDS FOR USE FOR TREATING HYPERPROLIFERATION, TREATING PROLIFERATIVE DISEASES AND REDUCING ADVERSE EFFECTS OF STEROID DYSFUNCTION IN MAMMALS, PHARMACEUTICAL COMPOSITION AND ITS USE” (priority 2007, published 2010)
